From US20040063730A1, “Pharmacuetical formulation comprising puyrazolo[4,-3-d]pyrimidines and antithrombotics, calcium antagonists, or prostaglandins or prostaglandin derivatives” (priority 2000, published 2004)

Structure (SMILES): CCCc1nn(C)c2c(NCc3ccc(OC)c(Cl)c3)nc(CCC(=O)O)nc12 [Example 2, 3-[7-(3-chloro-4-methoxybenzylamino)-1-methyl-3-propyl-1H-pyrazolo-[4,3-d]pyrimidin-5-yl]propionic acid]
- melting point: 178 °C
